From EP4744680A1, “TARGETED CHEMICAL DRUG AND PREPARATION METHOD THEREFOR, PHARMACEUTICAL COMPOSITION, AND USE OF TARGETED CHEMICAL DRUG” (Bai Yao Zhi Da (Beijing) Nanobio Technology Co., Ltd., priority 2023, dated 2025)

Legend:
[1] = tested on: N87 gastric cancer; test: In vivo antitumor efficacy in an N87 gastric cancer mouse model (drug of Example 5); set-up: species or system mouse (BALB/c nude); settings: 0.12mg i.v. (tail vein) once every 5 days, 5 administrations
Experimental: • 1. Cell culture and preparation: Thaw cells and seed into the corresponding medium (RPMI-1640 basal medium + 10% FBS + 1% penicillin/streptomycin [P/S]).
• a) Discard the culture medium and gently rinse the cells with PBS twice. • b) Add an appropriate volume of 0.25% trypsin, digest in a 37 °C incubator for about 1-2 min until cells visibly round up; then add complete medium (RPMI-1640 + 10% FBS + 1% P/S) to neutralize the trypsin.Gently pipette to detach cells and subculture at the desired split ratio. • c) Split ratio: 1: 2-1: 4; the split ratio used in this experiment is 1: 3. • d) Passage frequency: Every 2-3 days, depending on seeding density and growth.
• a) Harvest cells in logarithmic growth phase (~80-90% confluence recommended); • b) After trypsinization, add complete medium to terminate digestion; collect the suspension into centrifuge tubes and centrifuge at 1, 000 rpm for 5 min; • c) Wash the cell pellet twice with pre-chilled PBS and centrifuge each time; • d) Resuspend the pellet in PBS or serum-free medium to a final concentration of 2 × 10^7 cells/mL.
• Injection site: Subcutaneous, right axillary-dorsal region. • Inoculum: 3 × 10^6 cells/mouse; 30 mice inoculated. • Injection volume: 0.1 mL. • Method: Tumor cell inoculation.
Thaw and expand N87 cells to the required quantity; adjust the cell concentration to 3 × 10^7 cells/mL with sterile PBS and keep on ice until use. Using a single-use sterile 1 mL syringe, draw 0.1 mL of the cell suspension and inject subcutaneously into the right axillary-dorsal region of each mouse. The day of inoculation is designated Day 0 (D0).
• a)lmmediately before injection, thoroughly disperse the tumor cell suspension by pipetting to prevent cell clumping, which can reduce viability; • b)Restrain the mouse by grasping the dorsal neck skin with the thumb and forefinger while holding the tail with the little finger; • c)Using a disposable 1 mL syringe, inject the suspension subcutaneously; advance the needle slightly deeper under the skin (approximately 1 cm) to minimize leakage of the suspension from the needle tract;
Tumor size is measured three times per week using a vernier caliper. The long diameter (a) and the short diameter (b) are recorded. Tumor volume is calculated as: V=0.5×a×b^2.
RTV is calculated as: RTV = Vt/V0, where V0 is the tumor volume at grouping and initial dosing (D0), and Vt is the tumor volume at each measurement time point.
IRTW (%) = (Wcontrol group−Wtreatment group)/Wcontrol group × 100, [formula] where W denotes tumor weight.IRTW%>60% is considered effective.

[2] = Body weight in the comparative N87 study; type: in vivo, mouse (BALB/c-nu); settings: 0.12mg i.v. (tail vein) once weekly for 6 weeks
[3] = tested on: HepG2 liver cancer; test: In-vivo efficacy study in the HepG2 mouse liver cancer model (drug of Example 6); set-up: species or system mouse (BALB/cAnSlacNifdc-nu); settings: for Tumor growth inhibition rate (TGI, %) at different days post-inoculation: 6 mg/kg (0.12 mg/mouse) i.v. (tail vein) once weekly
Text: • Species/strain: BALB/cAnSlacNifdc-nu • Sex: Male • Body weight: 16-18 g
1).Inoculation and grouping: For the HepG2 mouse liver cancer model, male BALB/cAnSlacNifdc-nu nude mice, weighing 16.0-18.0 g, were used.Under aseptic conditions, HepG2 tumor tissue was excised and cut into 2.0mm×2.0mm×2.0mm tumor blocks, which were uniformly implanted subcutaneously into the left axillary dorsal region of nude mice. The day of implantation was designated as Day 0 (D0).When the tumor volume reached approximately 250.0 mm^3 (D7), animals were randomized by tumor volume into three groups: A (control group), B, and C (treatment groups), with 8 animals per group.On the day of randomization, all animals began intravenous (tail-vein) dosing once weekly for a total of 3 administrations. 2.Dosing regimen: Table 37
Tumor size is measured twice per week using a vernier caliper. The long diameter (a) and short diameter (b) are recorded. Tumor volume is calculated as: V=0.5×a×b^2.
RTV = Vt /V0 , [formula] where V0 is the tumor volume at grouping/first dosing (D0), and Vt is the tumor volume at each measurement time point.
6).Tumor weight: At the end of the study (D23), the remaining animals were euthanized by cervical dislocation. Tumors were excised, weighed, and photographed.

[4] = tested on: U251-RFP human glioma; test: In-vivo efficacy study in the U251-RFP human glioma orthotopic mouse model (drug of Example 9); set-up: species or system mouse (BALB/c nude); settings: 6mg/Kg i.v. (tail vein) twice weekly, 8 administrations
Text: 2.Dosing regimen: Table 41

COc1cccc2c1C(=O)c1c(O)c3c(c(O)c1C2=O)C[C@@](O)(C(=O)CO)C[C@@H]3O[C@H]1C[C@H](N)[C@@H](O)[C@H](C)O1 [Epirubicin drug substance (API), Epirubicin]
Inhibition rate (%) at different post-inoculation days ([1]; Day 9): 17.5%
Inhibition rate (%) at different post-inoculation days ([1]; Day 11): 3.5%
Inhibition rate (%) at different post-inoculation days ([1]; Day 13): 10.2%
Inhibition rate (%) at different post-inoculation days ([1]; Day 16): 24.1%
Inhibition rate (%) at different post-inoculation days ([1]; Day 18): 32.9%
Inhibition rate (%) at different post-inoculation days ([1]; Day 20): 36.4%
Inhibition rate (%) at different post-inoculation days ([1]; Day 23): 34.6%
Tumor weight ([1]; end of study): 0.1751 ± 0.13 g
IRTW% ([1]; inhibition rate of tumor weight): 71.987%
Body-weight difference (g) between Day 41 and Day 6 [2]: 3.29 g
Tumor weight inhibition rate, IRTW (%) ([3]; 23 days post-HepG2 inoculation, 6 mg/kg (0.12 mg/mouse) i.v. once weekly, 3 administrations): 25.20%
Tumor growth inhibition rate (TGI, %) at different days post-inoculation ([3]; Day 10, 3 administrations): 16.33%
Tumor growth inhibition rate (TGI, %) at different days post-inoculation ([3]; Day 14, 3 administrations): 36.16%
Tumor growth inhibition rate (TGI, %) at different days post-inoculation ([3]; Day 21, 3 administrations): 24.72%
Tumor growth inhibition rate (TGI, %) at different days post-inoculation ([3]; Day 23, 3 administrations): 22.08%
tumor growth inhibition rate (calculated based on tumor weight and tumor volume) ([3]; end of the study (D23), intravenous injection): less than 60%
Tumor growth inhibition rate (TGI, %) at different days post-inoculation ([4]; Day 6): 35.8%
Tumor growth inhibition rate (TGI, %) at different days post-inoculation ([4]; Day 10): -3.9%
Tumor growth inhibition rate (TGI, %) at different days post-inoculation ([4]; Day 13): -7.1%
Tumor growth inhibition rate (TGI, %) at different days post-inoculation ([4]; Day 17): 19.4%
